Source: ChEMBL document CHEMBL5465560, “Selectivity Literature for EUbOPEN Chemogenomic Library” (2024)
pIC50: −log10 of the molar value. Blank lines part the entries; values can stand above or below the compound they belong to.

Tests used:
[1] = target: Protein arginine N-methyltransferase 3 (Homo sapiens, UniProt O60678); assay: Selectivity interaction (Scintillation proximity assays) EUB0000255b PRMT3
[2] = target: LIM domain kinase 2 (Homo sapiens) (UniProt P53671); assay: Selectivity interaction (KinomeScan (DiscoverX)) EUB0000655a LIMK2; conditions: at 10 µM
[3] = target: T1, Testis-specific serine/threonine-protein kinase 1 (Homo sapiens) (UniProt Q9BXA7); conditions: at 10 µM
T1 sequence (whole entry): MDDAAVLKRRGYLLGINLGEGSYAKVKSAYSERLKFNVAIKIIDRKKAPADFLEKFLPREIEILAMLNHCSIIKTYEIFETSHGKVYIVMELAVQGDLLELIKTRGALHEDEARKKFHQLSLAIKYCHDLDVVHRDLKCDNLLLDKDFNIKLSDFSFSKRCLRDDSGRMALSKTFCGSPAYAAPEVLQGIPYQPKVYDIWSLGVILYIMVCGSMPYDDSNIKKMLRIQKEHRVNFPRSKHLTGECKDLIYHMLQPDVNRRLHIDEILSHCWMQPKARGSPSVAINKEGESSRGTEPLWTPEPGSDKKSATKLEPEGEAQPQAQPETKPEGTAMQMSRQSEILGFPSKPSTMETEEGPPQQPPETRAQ

[4] = target: T2, Interleukin-1 receptor-associated kinase 4 (Homo sapiens) (UniProt Q9NWZ3); conditions: at 10 µM
T2 sequence (whole entry): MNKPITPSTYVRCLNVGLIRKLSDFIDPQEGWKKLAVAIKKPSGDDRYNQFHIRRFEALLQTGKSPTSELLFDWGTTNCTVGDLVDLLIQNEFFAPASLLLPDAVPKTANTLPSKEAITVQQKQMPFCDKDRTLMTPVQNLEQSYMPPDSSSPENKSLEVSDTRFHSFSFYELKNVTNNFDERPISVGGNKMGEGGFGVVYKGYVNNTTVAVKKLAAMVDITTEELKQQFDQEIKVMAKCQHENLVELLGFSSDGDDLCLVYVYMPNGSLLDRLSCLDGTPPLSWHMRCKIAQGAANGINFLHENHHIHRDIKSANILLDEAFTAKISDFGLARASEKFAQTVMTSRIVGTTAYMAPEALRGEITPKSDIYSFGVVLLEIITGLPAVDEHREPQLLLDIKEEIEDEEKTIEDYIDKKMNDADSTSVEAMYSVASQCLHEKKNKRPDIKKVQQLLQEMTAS

[5] = target: Serine/threonine-protein kinase 38-like (Homo sapiens) (UniProt Q9Y2H1); conditions: at 10 µM
[6] = target: Serine/threonine-protein kinase N1 (Homo sapiens, UniProt Q16512); assay: Selectivity interaction (ActivX KiNativ screen (kinase selectivity in THP-1 cell lysates)) EUB0000639a PKN1; assay type: subcellular; conditions: lysate, at 1 µM
[7] = target: T3, Megakaryocyte-associated tyrosine-protein kinase (Homo sapiens) (UniProt P42679); assay: Selectivity interaction (KinomeScan (DiscoverX)) EUB0000229b MATK; conditions: at 10 µM
T3 sequence (whole entry): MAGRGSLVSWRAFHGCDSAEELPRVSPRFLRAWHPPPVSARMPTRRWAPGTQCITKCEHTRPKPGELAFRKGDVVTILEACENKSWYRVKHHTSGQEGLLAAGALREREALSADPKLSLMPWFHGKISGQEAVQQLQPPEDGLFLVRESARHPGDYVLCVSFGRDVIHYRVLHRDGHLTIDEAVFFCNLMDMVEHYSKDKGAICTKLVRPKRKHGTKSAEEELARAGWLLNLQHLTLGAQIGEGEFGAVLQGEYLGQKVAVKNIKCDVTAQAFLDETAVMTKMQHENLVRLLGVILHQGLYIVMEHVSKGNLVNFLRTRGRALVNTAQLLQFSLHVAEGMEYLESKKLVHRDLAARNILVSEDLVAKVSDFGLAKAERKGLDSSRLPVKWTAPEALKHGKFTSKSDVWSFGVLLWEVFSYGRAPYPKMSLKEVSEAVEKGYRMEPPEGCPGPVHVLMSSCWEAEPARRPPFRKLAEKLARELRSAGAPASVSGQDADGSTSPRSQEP

[8] = target: Cyclin-Y/Cyclin-dependent kinase 16 (Homo sapiens) (UniProt Q00536+Q8ND76); assay: Selectivity interaction (ProQinase) EUB0000171b CDK16; assay type: protein-complex assay
[9] = target: T4, Serine/threonine-protein kinase VRK1 (Homo sapiens) (UniProt Q99986); assay: Selectivity interaction (ProQinase) EUB0000171b VRK1
T4 sequence (whole entry): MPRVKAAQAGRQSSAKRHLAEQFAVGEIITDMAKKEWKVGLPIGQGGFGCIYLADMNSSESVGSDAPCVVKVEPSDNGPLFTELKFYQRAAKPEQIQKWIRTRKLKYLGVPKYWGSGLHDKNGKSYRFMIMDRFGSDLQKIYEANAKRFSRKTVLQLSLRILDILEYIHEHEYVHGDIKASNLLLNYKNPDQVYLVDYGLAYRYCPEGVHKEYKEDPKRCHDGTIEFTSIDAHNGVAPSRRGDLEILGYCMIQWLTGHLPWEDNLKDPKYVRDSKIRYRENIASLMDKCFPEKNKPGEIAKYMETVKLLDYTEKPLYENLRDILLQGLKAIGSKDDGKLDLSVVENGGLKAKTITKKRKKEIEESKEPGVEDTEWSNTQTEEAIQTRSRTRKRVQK

[10] = target: TGF-beta receptor type-2 (Homo sapiens) (UniProt P37173); assay: Selectivity interaction (KinomeScan (DiscoverX)) EUB0001049a TGFBR2; conditions: at 1 µM
[11] = target: Serine/threonine-protein kinase Chk2 (Homo sapiens) (UniProt O96017); assay: Selectivity interaction (KinomeScan (DiscoverX)) EUB0000092b CHEK2; conditions: at 10 µM
[12] = target: T5, Casein kinase I isoform alpha-like (Homo sapiens) (UniProt Q8N752); assay: Selectivity interaction (Kinase panel (Z-LYTE Assay)) EUB0001632a CSNK1A1L; conditions: at 10 µM
T5 sequence (whole entry): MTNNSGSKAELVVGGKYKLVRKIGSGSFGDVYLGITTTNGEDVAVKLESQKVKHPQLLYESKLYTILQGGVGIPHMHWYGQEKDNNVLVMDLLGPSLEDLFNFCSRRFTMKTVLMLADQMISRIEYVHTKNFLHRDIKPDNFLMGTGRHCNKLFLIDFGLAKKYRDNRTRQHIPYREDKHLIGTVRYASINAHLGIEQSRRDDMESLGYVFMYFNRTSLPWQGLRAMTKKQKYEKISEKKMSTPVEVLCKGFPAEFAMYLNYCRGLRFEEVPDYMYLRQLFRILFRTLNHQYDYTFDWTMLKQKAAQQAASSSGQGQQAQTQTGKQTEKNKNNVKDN

[13] = target: Inactive tyrosine-protein kinase PEAK1 (Homo sapiens) (UniProt Q9H792); assay: Selectivity interaction (Kinase panel (Z-LYTE Assay)) EUB0001632a PEAK1; conditions: at 10 µM
Inactive tyrosine-protein kinase PEAK1 (Homo sapiens), sequence (Q9H792 whole entry): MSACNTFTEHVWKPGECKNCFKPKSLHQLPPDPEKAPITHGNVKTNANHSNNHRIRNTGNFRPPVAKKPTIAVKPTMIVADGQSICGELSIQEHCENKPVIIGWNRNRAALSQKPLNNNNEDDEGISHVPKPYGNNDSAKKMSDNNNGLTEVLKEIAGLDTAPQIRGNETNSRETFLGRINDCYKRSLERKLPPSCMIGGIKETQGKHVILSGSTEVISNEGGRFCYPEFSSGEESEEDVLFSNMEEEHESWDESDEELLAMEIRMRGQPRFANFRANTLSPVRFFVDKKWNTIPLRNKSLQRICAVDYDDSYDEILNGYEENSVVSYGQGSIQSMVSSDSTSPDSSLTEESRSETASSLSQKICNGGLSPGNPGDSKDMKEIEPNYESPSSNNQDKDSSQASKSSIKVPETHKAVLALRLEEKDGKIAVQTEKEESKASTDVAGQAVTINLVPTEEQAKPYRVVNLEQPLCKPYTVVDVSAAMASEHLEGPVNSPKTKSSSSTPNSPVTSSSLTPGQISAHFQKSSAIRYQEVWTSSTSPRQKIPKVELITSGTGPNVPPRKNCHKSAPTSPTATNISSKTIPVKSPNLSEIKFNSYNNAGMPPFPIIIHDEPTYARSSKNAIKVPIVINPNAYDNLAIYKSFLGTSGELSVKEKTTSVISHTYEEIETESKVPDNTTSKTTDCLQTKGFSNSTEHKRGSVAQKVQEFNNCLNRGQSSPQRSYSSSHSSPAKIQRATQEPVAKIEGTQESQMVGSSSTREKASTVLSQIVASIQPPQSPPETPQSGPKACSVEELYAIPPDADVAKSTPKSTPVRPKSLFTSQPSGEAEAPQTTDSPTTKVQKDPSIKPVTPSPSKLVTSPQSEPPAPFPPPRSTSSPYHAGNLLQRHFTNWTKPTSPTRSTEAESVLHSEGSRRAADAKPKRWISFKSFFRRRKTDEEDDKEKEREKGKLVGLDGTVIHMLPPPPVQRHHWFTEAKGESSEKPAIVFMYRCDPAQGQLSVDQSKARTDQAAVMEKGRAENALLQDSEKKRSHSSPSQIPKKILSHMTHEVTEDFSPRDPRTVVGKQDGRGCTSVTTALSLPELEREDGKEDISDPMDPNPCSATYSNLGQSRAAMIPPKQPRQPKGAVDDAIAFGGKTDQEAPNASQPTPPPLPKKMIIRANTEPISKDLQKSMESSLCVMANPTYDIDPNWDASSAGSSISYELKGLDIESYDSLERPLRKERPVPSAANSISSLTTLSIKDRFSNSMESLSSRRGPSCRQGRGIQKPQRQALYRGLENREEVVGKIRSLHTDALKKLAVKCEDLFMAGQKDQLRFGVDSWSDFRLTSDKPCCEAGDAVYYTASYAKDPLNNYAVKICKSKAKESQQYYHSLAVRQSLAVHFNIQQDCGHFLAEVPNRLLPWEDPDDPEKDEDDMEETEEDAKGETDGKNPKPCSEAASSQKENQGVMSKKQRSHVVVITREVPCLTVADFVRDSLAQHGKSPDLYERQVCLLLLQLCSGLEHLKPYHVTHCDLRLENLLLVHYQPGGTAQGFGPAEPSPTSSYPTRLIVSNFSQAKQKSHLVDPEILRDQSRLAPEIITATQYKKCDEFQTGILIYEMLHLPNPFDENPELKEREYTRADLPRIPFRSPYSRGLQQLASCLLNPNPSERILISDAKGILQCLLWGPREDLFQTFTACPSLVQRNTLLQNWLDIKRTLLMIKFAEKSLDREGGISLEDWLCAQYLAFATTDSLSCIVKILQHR

Serine/threonine-protein kinase Chk2 (Homo sapiens), sequence (O96017 whole entry, canonical isoform): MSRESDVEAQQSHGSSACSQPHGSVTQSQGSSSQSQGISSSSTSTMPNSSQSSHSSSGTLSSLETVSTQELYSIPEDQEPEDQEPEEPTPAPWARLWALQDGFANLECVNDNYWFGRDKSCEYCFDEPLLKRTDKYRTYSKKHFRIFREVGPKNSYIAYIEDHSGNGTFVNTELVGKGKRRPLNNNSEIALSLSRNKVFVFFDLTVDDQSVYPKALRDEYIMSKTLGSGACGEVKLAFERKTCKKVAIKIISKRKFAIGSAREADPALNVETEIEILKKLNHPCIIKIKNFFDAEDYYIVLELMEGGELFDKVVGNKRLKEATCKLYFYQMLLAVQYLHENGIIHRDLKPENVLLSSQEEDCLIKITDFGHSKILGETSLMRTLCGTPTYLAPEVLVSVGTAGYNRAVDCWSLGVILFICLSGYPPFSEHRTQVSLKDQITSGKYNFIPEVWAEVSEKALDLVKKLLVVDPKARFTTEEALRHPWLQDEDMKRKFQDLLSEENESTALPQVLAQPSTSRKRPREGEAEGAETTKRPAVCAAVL
LIM domain kinase 2 (Homo sapiens), sequence (P53671 whole entry, looked up, the tested form may be a part): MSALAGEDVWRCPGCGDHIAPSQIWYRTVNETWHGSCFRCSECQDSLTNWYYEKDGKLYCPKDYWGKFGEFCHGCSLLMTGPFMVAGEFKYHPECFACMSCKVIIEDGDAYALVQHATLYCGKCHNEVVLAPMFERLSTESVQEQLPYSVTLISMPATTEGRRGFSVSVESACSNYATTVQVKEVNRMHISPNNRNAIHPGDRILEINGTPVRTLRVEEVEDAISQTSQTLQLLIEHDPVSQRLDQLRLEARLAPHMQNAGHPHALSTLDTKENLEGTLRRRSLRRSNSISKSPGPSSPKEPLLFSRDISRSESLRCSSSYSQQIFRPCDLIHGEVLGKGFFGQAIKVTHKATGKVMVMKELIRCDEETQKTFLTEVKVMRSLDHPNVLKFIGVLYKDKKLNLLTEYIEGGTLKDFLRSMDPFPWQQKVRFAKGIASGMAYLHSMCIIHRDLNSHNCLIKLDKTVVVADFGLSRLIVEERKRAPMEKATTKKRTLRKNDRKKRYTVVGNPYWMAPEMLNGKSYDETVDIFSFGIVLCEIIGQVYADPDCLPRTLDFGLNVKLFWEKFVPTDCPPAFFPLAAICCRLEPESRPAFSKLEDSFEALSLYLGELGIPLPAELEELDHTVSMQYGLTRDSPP
TGF-beta receptor type-2 (Homo sapiens), sequence (P37173 whole entry): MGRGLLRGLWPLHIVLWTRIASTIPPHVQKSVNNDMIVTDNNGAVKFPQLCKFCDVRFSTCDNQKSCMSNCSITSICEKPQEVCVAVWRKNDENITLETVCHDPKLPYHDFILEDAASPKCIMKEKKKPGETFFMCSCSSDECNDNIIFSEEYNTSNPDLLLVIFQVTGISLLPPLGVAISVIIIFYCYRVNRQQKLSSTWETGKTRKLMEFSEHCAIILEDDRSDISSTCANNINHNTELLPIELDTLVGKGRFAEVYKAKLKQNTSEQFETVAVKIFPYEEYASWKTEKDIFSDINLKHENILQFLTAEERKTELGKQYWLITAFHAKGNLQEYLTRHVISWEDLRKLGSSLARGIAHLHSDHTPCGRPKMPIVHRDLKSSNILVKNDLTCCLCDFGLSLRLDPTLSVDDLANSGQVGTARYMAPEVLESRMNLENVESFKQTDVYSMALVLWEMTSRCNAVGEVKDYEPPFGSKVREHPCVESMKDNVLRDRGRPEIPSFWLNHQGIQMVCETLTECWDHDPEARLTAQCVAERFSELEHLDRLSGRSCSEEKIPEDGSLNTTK
Serine/threonine-protein kinase 38-like (Homo sapiens), sequence (Q9Y2H1 2-464 limits assumed): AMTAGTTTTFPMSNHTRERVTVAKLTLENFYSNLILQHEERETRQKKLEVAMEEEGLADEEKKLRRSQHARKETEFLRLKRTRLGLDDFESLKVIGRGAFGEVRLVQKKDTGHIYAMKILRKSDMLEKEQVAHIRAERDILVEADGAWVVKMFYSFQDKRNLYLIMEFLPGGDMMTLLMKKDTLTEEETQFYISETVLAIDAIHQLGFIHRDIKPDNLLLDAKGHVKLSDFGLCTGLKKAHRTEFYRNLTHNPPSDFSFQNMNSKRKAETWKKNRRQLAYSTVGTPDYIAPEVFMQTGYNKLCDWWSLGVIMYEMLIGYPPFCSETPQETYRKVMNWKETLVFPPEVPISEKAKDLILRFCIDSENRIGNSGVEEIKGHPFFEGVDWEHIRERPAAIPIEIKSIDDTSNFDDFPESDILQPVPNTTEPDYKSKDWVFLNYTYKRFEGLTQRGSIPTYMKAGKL
Protein arginine N-methyltransferase 3, sequence (O60678 whole entry, the tested form may be a part): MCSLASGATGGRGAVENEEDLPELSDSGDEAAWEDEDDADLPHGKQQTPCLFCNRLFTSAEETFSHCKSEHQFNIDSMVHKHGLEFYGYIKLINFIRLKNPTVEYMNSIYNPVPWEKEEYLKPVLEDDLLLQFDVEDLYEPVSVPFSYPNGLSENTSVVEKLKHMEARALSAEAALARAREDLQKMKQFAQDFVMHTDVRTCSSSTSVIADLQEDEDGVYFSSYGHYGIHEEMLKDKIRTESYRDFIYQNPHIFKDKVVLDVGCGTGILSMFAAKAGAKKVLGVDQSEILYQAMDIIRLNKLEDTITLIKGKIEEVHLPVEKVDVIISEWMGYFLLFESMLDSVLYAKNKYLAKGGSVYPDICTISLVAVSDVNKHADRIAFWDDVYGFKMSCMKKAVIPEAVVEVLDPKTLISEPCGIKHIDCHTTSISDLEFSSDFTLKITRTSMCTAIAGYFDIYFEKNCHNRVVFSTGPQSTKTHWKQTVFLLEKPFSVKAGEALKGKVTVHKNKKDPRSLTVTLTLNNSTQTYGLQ

Structure (SMILES): COCCN1CCC(c2cc(CN(C)C(=O)c3cccc(Oc4ccccc4)c3)ccn2)CC1
pIC50 [1]: < 5.00

Structure (SMILES): CN(C)CCOc1ccc(-c2nc(-c3ccncc3)c(-c3ccc4c(c3)CC/C4=N\O)[nH]2)cc1
% of control [2]: 79%

Structure (SMILES): COCC(=O)NC/C=C/c1ccc2ncnc(Nc3ccc(Oc4ccc(C)nc4)c(C)c3)c2c1 [CP-724714]
% of control [3]: 100%

Structure (SMILES): Cc1cc([C@@H](C)Nc2ccccc2C(=O)O)c2nc(N3CCOCC3)cc(=O)n2c1 [AZD-6482]
% of control [4]: 100%
% of control [5]: 94%

% of inhibition [6]: -0.1%
Structure (SMILES): CC[C@@H]1[C@H](F)C(=O)N[C@@H]1COc1nccc2cc(C(N)=O)c(OC)cc12 [ZIMLOVISERTIB]

Structure (SMILES): COc1cc(N(C)c2ccnc3ccc(C(F)(F)F)cc23)cc(OC)c1OC
% binding [7]: 81%

% of control ([8]; at 1 µM): 88%
% of control ([8]; at 5 µM): 87%
% of control ([9]; at 1 µM): 95%
% of control ([9]; at 5 µM): 97%
Structure (SMILES): C=CC(=O)Nc1cccc(C(=O)Nc2ccc(Nc3cc(-c4[nH]c(SC)nc4C)ccn3)cc2)c1

Structure (SMILES): COc1cc(Nc2nc(C)cc(-c3cnn4nc(OC)ccc34)n2)cc(C(F)(F)F)c1
% of control [10]: 100%

Structure (SMILES): CCC(=O)N1CCN(c2ccc(-n3c(=O)ccc4cnc5ccc(-c6cnc7ccccc7c6)cc5c43)cc2C(F)(F)F)CC1
% of control [11]: 100%

% of control [12]: -0.03%
% of control [13]: 11.7%
Structure (SMILES): Cn1cc(-n2cnc3c(NCc4nc5cc(Cl)c(Cl)cc5[nH]4)nc(N4CCOCC4)nc32)cn1
